Source: publication PMC10920834, “Synthesis, anticancer activity, and molecular docking of half-sandwich iron(II) cyclopentadienyl complexes with maleimide and phosphine or phosphite ligands” (Scientific Reports, 2024)

Legend:
Format in all cases: cell-based, human
[1] = tested on: PBM cells; test: Cell viability resazurin assay, PBM cells; settings: for viability of PBM cells relative to control: ± SD
From the text: Peripheral blood mononuclear (PBM) cells were isolated from a leukocyte-buffy coat collected from the blood of healthy, non-smoking donors at the Blood Bank in Lodz, Poland. The study protocol received approval from the Committee for Research on Human Subjects of the University of Lodz (17/KBBN-UŁ/III/2019). The initial step of isolation process involved mixing buffy coats with PBS in a 1:1 ratio. Subsequently, the mixture was centrifuged using a density gradient of Lymphosep (Cytogen, Zgierz, Poland) at 2200 RPM for 20 min, employing the lowest values for acceleration and deceleration. PBM cells were collected and washed three times by centrifugation with 1 × PBS. Following isolation, the cells were suspended in RPMI 1640 medium.
(§1) Firstly, resazurin salt powder was dissolved in sterile 1 × PBS. Cells were then seeded on the 96-well plates in the count of 1 × 10^4 in the case of HL-60 cells and of 5 × 10^4 for PBM cells and of 5 × 10^3 for A549 cells per well. A549 cells were seeded 24 h prior to treatment with the complexes to allow cell adherence to 96-well plate. Iron(II) complexes were added to wells to obtain final concentrations of 0.5, 1, 2.5, 5, 10, 25, 50, 100 and 250 μM. Subsequently, plates were incubated at 37 °C in 5% CO2 for 2 h and 24 h. After that 10 μl of resazurin salt was added to each well and plates again were incubated in 37 °C in 5% CO2 for 2 h. Finally, fluorescence was measured with microplate reader Synergy HT (Bio-Tek Instruments, USA) using an excitation wavelength of 530/25 and an emission wavelength of 590/35 nm. The effects of iron(II) complexes were calculated as the percentage of control fluorescence. IC50 (half maximal inhibitory concentration) values were calculated using a website algorithm (https://www.aatbio.com/tools/ic50-calculator). All assays were performed in octuplicate.

[2] = tested on: HL-60 cells; test: Cell viability resazurin assay, HL-60 cells; settings: for viability of HL-60 cells relative to control: ± SD
Method: (§2) The A549 (human non-small cell lung cancer) cell line was obtained from the American Type Culture Collection (ATCC) and cultured in Dulbecco's Modified Eagle Medium (DMEM) with 10% fetal bovine serum (FBS), 2 mM L-Glutamine, 25 mM HEPES and penicillin/streptomycin solution (100 U/ml and 100 µg/ml, respectively). The HL-60 (human promyelocytic leukemia) cell line was also obtained from the American Type Culture Collection (ATCC) and cultured in Iscove’s Modified Dulbecco's Medium (IMDM) with 15% fetal bovine serum (FBS), 2 mM L-Glutamine, 25 mM HEPES and penicillin/streptomycin solution (100 U/ml and 100 µg/ml, respectively). Both cell lines were cultured in flasks at 37 °C in 5% CO2 and sub-cultured every 2–3 days to maintain exponential growth.
as §1

[3] = tested on: A549 cells; test: Cell viability resazurin assay, A549 cells; settings: for viability of A549 cells relative to control: ± SD
Method: as §2, §1

SMILES: O=C1C=CC(=O)[N-]1.[C-]#[O+].[Fe+2].c1cc[cH-]c1.c1ccc(OP(Oc2ccccc2)Oc2ccccc2)cc1 [3b, CpFe(CO)(P(OPh)3)(η^1-N-maleimidato)]
- viability of PBM cells relative to control ([1]; 2 h incubation, 0.5 µM): 98.5 ± 2.18%
- viability of PBM cells relative to control ([1]; 2 h incubation, 1 µM): 99.88 ± 2.57%
- viability of PBM cells relative to control ([1]; 2 h incubation, 2.5 µM): 97.35 ± 5.51%
- viability of PBM cells relative to control ([1]; 2 h incubation, 5 µM): 100.32 ± 3.02%
- viability of PBM cells relative to control ([1]; 2 h incubation, 10 µM): 99.06 ± 3.6%
- viability of PBM cells relative to control ([1]; 2 h incubation, 25 µM): 98.42 ± 1.87%
- viability of PBM cells relative to control ([1]; 2 h incubation, 50 µM): 100.03 ± 0.88%
- viability of PBM cells relative to control ([1]; 2 h incubation, 100 µM): 98.48 ± 0.54%
- viability of PBM cells relative to control ([1]; 2 h incubation, 250 µM): 99.51 ± 1.24%
- IC50 ([1]; 24 h incubation): 5.8 µM
- viability of PBM cells relative to control ([1]; 24 h incubation, 0.5 µM): 97.8 ± 2.01%
- viability of PBM cells relative to control ([1]; 24 h incubation, 1 µM): 98.46 ± 7.18%
- viability of PBM cells relative to control ([1]; 24 h incubation, 2.5 µM): 94.41 ± 2.27%
- viability of PBM cells relative to control ([1]; 24 h incubation, 5 µM): 52.91 ± 0.63%
- viability of PBM cells relative to control ([1]; 24 h incubation, 10 µM): 49.35 ± 1.94%
- viability of PBM cells relative to control ([1]; 24 h incubation, 25 µM): 31 ± 1.1%
- viability of PBM cells relative to control ([1]; 24 h incubation, 50 µM): 28.33 ± 2.17%
- viability of PBM cells relative to control ([1]; 24 h incubation, 100 µM): 16.65 ± 0.55%
- viability of PBM cells relative to control ([1]; 24 h incubation, 250 µM): 13.82 ± 0.52%
- viability of HL-60 cells relative to control ([2]; 2 h incubation, 0.5 µM): 108.58 ± 5.93%
- viability of HL-60 cells relative to control ([2]; 2 h incubation, 1 µM): 105.27 ± 5.97%
- viability of HL-60 cells relative to control ([2]; 2 h incubation, 2.5 µM): 111.13 ± 4.29%
- viability of HL-60 cells relative to control ([2]; 2 h incubation, 5 µM): 116.45 ± 4.31%
- viability of HL-60 cells relative to control ([2]; 2 h incubation, 10 µM): 125.67 ± 4.5%
- viability of HL-60 cells relative to control ([2]; 2 h incubation, 25 µM): 140.68 ± 7.01%
- viability of HL-60 cells relative to control ([2]; 2 h incubation, 50 µM): 116.21 ± 2.09%
- viability of HL-60 cells relative to control ([2]; 2 h incubation, 100 µM): 70.87 ± 2.53%
- viability of HL-60 cells relative to control ([2]; 2 h incubation, 250 µM): 23.24 ± 0.25%
- HL-60 cell viability, sharp increase up to ([2]; 2 h incubation, concentration not given): approximately 140%
- IC50 ([2]; 24 h incubation): 9.09 µM
- viability of HL-60 cells relative to control ([2]; 24 h incubation, 0.5 µM): 101.68 ± 1.04%
- viability of HL-60 cells relative to control ([2]; 24 h incubation, 1 µM): 98.91 ± 4.85%
- viability of HL-60 cells relative to control ([2]; 24 h incubation, 2.5 µM): 91.42 ± 3.16%
- viability of HL-60 cells relative to control ([2]; 24 h incubation, 5 µM): 72.37 ± 3.19%
- viability of HL-60 cells relative to control ([2]; 24 h incubation, 10 µM): 49.27 ± 1.71%
- viability of HL-60 cells relative to control ([2]; 24 h incubation, 25 µM): 3.18 ± 0.36%
- viability of HL-60 cells relative to control ([2]; 24 h incubation, 50 µM): 0.99 ± 0.02%
- viability of HL-60 cells relative to control ([2]; 24 h incubation, 100 µM): 0.96 ± 0.1%
- viability of HL-60 cells relative to control ([2]; 24 h incubation, 250 µM): 0.94 ± 0.06%
- viability of A549 cells relative to control ([3]; 2 h incubation, 0.5 µM): 94.42 ± 12.46%
- viability of A549 cells relative to control ([3]; 2 h incubation, 1 µM): 97.15 ± 8.30%
- viability of A549 cells relative to control ([3]; 2 h incubation, 2.5 µM): 96.59 ± 9.16%
- viability of A549 cells relative to control ([3]; 2 h incubation, 5 µM): 90.46 ± 7.14%
- viability of A549 cells relative to control ([3]; 2 h incubation, 10 µM): 93.75 ± 11.55%
- viability of A549 cells relative to control ([3]; 2 h incubation, 25 µM): 97.77 ± 7.39%
- viability of A549 cells relative to control ([3]; 2 h incubation, 50 µM): 104.82 ± 7.84%
- viability of A549 cells relative to control ([3]; 2 h incubation, 100 µM): 97.69 ± 11.65%
- viability of A549 cells relative to control ([3]; 2 h incubation, 250 µM): 97.95 ± 13.58%
- IC50 ([3]; 24 h incubation): 19.2 µM
- viability of A549 cells relative to control ([3]; 24 h incubation, 0.5 µM): 91.38 ± 8.55%
- viability of A549 cells relative to control ([3]; 24 h incubation, 1 µM): 92.49 ± 11.20%
- viability of A549 cells relative to control ([3]; 24 h incubation, 2.5 µM): 78.64 ± 6.01%
- viability of A549 cells relative to control ([3]; 24 h incubation, 5 µM): 80.46 ± 7.49%
- viability of A549 cells relative to control ([3]; 24 h incubation, 10 µM): 80.04 ± 11.40%
- viability of A549 cells relative to control ([3]; 24 h incubation, 25 µM): 25.66 ± 3.11%
- viability of A549 cells relative to control ([3]; 24 h incubation, 50 µM): 22.34 ± 2.60%
- viability of A549 cells relative to control ([3]; 24 h incubation, 100 µM): 42.71 ± 5.87%
- viability of A549 cells relative to control ([3]; 24 h incubation, 250 µM): 28.61 ± 5.09%
